Values quoted from earlier work as cited in patent EP2691395B1, “PROCESSES FOR PREPARING TOFACITINIB SALTS” (ratiopharm GmbH, priority 2011, dated 2012).

Details: acids listed as possible first acid
In the case of `CCCCCCCCCCCCCCCCCC(=O)O` [stearic acid], the pKa is given as “about 4.9”. For `CCCCCCCCCCCC(=O)O` [lauric acid], the pKa is listed as “about 4.9”. In the case of `CC(CC(=O)O)C(=O)O` (stereo not drawn) [methylsuccinic acid], the pKa is listed as “about 4.13”. For `O=C(O)Cc1ccccc1` [phenylacetic acid], the pKa is listed as “about 4.28”. For `CC1(C(=O)O)CCC(C(=O)O)C1(C)C` (stereo not drawn) [(+)-camphoric acid], the pKa is listed as “about 4.72”. In the case of `O=C(O)CCCO` [4-hydroxybutanoic acid], the pKa is listed as “about 4.72”. In the case of `O=C(O)CCO` [3-hydroxypropanoic acid], the pKa is listed as “about 4.51”. For `CCCCC(=O)O` [pentanoic acid], the pKa is given as “about 4.84”. In the case of `O=C(O)/C=C\c1ccccc1` [cis-cinnamic acid], the pKa is given as “about 3.89”. For `O=c1[nH]c(=O)c2[nH]c(=O)[nH]c2[nH]1` [uric acid], the pKa is listed as “about 3.89”. In the case of `CCCCCCCCCCCCCCCC(=O)O` [palmitic acid], the pKa is given as “about 4.9”. In the case of `C=CCCCCCCCCC(=O)O` [undecylenic acid], the pKa is listed as “about 4.9”. For `O=C(O)O` [carbonic acid], the pKa is listed as “about 6.46”. For `O=C(O)CNC(=O)c1ccccc1` [hippuric acid], the pKa is listed as “about 3.55”. In the case of `CCCCCCCC(=O)O` [caprylic or octanoic acid], the pKa is listed as “about 4.91”. For `O=C(O)c1ccc(O)cc1` [p-hydroxybenzoic acid], the pKa is given as “about 4.48”. For `CCCCCC(=O)O` [hexanoic or caproic acid], the pKa is listed as “about 4.85”. In the case of `CCCCCCCC/C=C\CCCCCCCC(=O)O` [oleic acid], the pKa is listed as “about 4”. For `O=C(O)CCCC(=O)O` [glutaric acid], the pKa is given as “about 4.31”. For `CC(O)CC(=O)O` (stereo not drawn) [3-hydroxybutanoic acid], the pKa is listed as “about 4.70”. For `O=C(O)c1cccc(O)c1` [m-hydroxybenzoic acid], the pKa is listed as “about 4.06”. For `O=C(O)[C@H](O)[C@@H](O)[C@H](O)[C@H](O)CO` [D-gluconic acid], the pKa is given as “about 3.76”. In the case of `CC(=O)Nc1ccc(C(=O)O)cc1` [4-acetamidobenzoic acid], the pKa is listed as “about 4.3”. For `O=C(O)c1cc(=O)[nH]c(=O)[nH]1` [orotic acid], the pKa is listed as “about 5.85”.
